Laboratory results from patent US5318776A, “Composition for preventing graying of the hair” (priority 1988, dated 1994).
Where two headings read alike, the source gives them in different places. Blank lines part the entries; values can stand above or below the molecule they belong to.

Experiments:
[1] = system: grayed hair (melanocytes); assay: Inhibition of generation of grayed hair in stressed black mice; format: in vivo; conditions: for Rate of Grayed Hair (%): 0.1 ml twice a day, 1 month
Method: It is known that stress is one of the causes of graying of the hair. […] Moreover, the stability of the composition with time was also estimated.
(§1) One month thereafter, regenerated hair was collected from a constant area and the rate (%) of generated grayed hair to all the number of hair collected was estimated. In addition, the aforementioned hair tonic type preparations were allowed to stand at 30° C. for 3 months and the residual amount of the test compounds therein was examined by liquid chromatography as well as the degree of change in smell was also evaluated by means of sensory test.
as §1, with “compositions” for “hair tonic type preparations”, “by” for “by means of”, “test. […] In addition, the abbreviation P means the averaged added molar number of ethylene oxide residues.” for “test.”

[2] = Stability: residual amount of test compound after standing at 30° C. for 3 months, liquid chromatography; format: physicochemical
Method: as §1
as §1, with “compositions” for “hair tonic type preparations”, “by” for “by means of”, “test. […] In addition, the abbreviation P means the averaged added molar number of ethylene oxide residues.” for “test.”

[3] = Sensory test: degree of change in smell after standing at 30° C. for 3 months;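 for Stability S.E. (Sensory Evaluation): double circle means no smell deterioration on a four-grade scale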; format: physicochemical; conditions: for Stability S.E. (Sensory Evaluation) / deterioration in smell (in words): 30° C., 3 months
Method: as §1
as §1, with “compositions” for “hair tonic type preparations”, “by” for “by means of”, “test. […] In addition, the abbreviation P means the averaged added molar number of ethylene oxide residues.” for “test.”

grayed hair = assay: Half-Head technique application to scalp of men having grayed hair; format: in vivo, men (40 to 60 years old)
Method: Then, the effects of preventing graying of the hair and restoring grayed hair to its natural color were evaluated by comparing the conditions of the portions observed before and after the application of Samples and the results obtained were listed in the following Table VIII. […]
Then, the effectiveness of the hair cream of the invention and that of Comp.

[4] = Table III, 0.1% test compound in hair tonic, control 16.5
[5] = hair tonic, Table III, 0.1% in hair tonic, 30° C., 3 months, read-out: Stability Residue(%)
[6] = Example 7, hair cream as in Example 5
[7] = Example 6, hair tonic as in Example 3
[8] = Table V, 0.05% test compound in hair tonic, control 17.1
[9] = hair tonic, Table V, 0.05% in hair tonic, 30° C., 3 months, read-out: Stability Residue(%)
[10] = Examples 3 to 5, Half-Head, men, 3 months

SMILES: O=P1(O)OC[C@H]2O[C@@H](n3cnc4c3ncn3ccnc43)[C@H](O)[C@@H]2O1 [1,N^6 -etheno cAMP]
Rate of Grayed Hair (%) [1, 4]: 7.5%
remaining at 2190 h [2, 5]: 99.8%
Stability S.E. (Sensory Evaluation) ([3]; Table III, 0.1% in hair tonic): .circleincircle.

SMILES: CCn1cnc2c(ncn2[C@@H]2O[C@@H]3COP(=O)([O-])O[C@H]3[C@H]2O)c1=N.[Na+] [1-ethyl cAMP-Na]
stability (in words) ([2]; Example 7, hair cream): stable
quality deterioration such as giving out of bad smell ([3]; Example 7, hair cream): did not cause quality deterioration such as giving out of bad smell
effect of preventing graying of the hair and restoring grayed hair to its natural color (in words) (grayed hair; [6]): the same effect of preventing graying of the hair and restoring grayed hair to its natural color as in Example 5

SMILES: CCOc1nc2c(N)ncnc2n1[C@@H]1O[C@@H]2COP(=O)(O)O[C@H]2[C@H]1O [8-ethoxy cAMP-Na]
Rate of Grayed Hair (%) [1, 8]: 5.3%
stability (in words) ([2]; Example 6, hair tonic): stable
remaining at 2190 h [2, 9]: 99.8%
quality deterioration such as giving out of bad smell ([3]; Example 6, hair tonic): did not cause quality deterioration such as giving out of bad smell
Stability S.E. (Sensory Evaluation) ([3]; Table V, 0.05% in hair tonic): .circleincircle.
effect of preventing graying of the hair and restoring grayed hair to its natural color (in words) (grayed hair; [7]): the same effect of preventing graying of the hair and restoring grayed hair to its natural color as in Example 3

SMILES: O=P1(O)OC[C@H]2O[C@@H](n3cnc4c3ncn3ccnc43)[C@H](O)[C@@H]2O1 [1,N^6 -etheno cAMP-K]
effect of preventing graying of the hair and restoring grayed hair to its natural color (in words) (grayed hair; [10]): remarkable effects of preventing graying of the hair and restoring grayed hair to its natural color

SMILES: CCN(CC)CC.Cn1cnc2c(ncn2[C@@H]2O[C@@H]3COP(=O)(O)O[C@H]3[C@H]2O)c1=N [1-methyl cAMP-triethylammonium]
effect of preventing graying of the hair and restoring grayed hair to its natural color (in words) (grayed hair; [10]): remarkable effects of preventing graying of the hair and restoring grayed hair to its natural color

SMILES: CSc1nc2c(N)ncnc2n1[C@@H]1O[C@@H]2COP(=O)(O)O[C@H]2[C@H]1O [8-methylthio cAMP]
Rate of Grayed Hair (%) [1, 4]: 8.0%
remaining at 2190 h [2, 5]: 99.9%
Stability S.E. (Sensory Evaluation) ([3]; Table III, 0.1% in hair tonic): .circleincircle.

SMILES: CCCCOc1nc2c(N)ncnc2n1[C@@H]1O[C@@H]2COP(=O)(O)O[C@H]2[C@H]1O [8-butoxy cAMP-Na]
Rate of Grayed Hair (%) [1, 8]: 6.0%
stability (in words) ([2]; Example 6, hair tonic): stable
remaining at 2190 h [2, 9]: 99.9%
quality deterioration such as giving out of bad smell ([3]; Example 6, hair tonic): did not cause quality deterioration such as giving out of bad smell
Stability S.E. (Sensory Evaluation) ([3]; Table V, 0.05% in hair tonic): .circleincircle.
effect of preventing graying of the hair and restoring grayed hair to its natural color (in words) (grayed hair; [7]): the same effect of preventing graying of the hair and restoring grayed hair to its natural color as in Example 3

SMILES: Nc1ncnc2c1nc(Cl)n2[C@@H]1O[C@@H]2COP(=O)(O)O[C@H]2[C@H]1O [8-chloro cAMP-Na]
stability (in words) ([2]; Example 7, hair cream): stable
quality deterioration such as giving out of bad smell ([3]; Example 7, hair cream): did not cause quality deterioration such as giving out of bad smell
effect of preventing graying of the hair and restoring grayed hair to its natural color (in words) (grayed hair; [6]): the same effect of preventing graying of the hair and restoring grayed hair to its natural color as in Example 5

SMILES: Nc1ncnc2c1nc(Sc1ccc(Cl)cc1)n2[C@@H]1O[C@@H]2COP(=O)(O)O[C@H]2[C@H]1O [8-4-chlorophenylthio cAMP-Na]
Rate of Grayed Hair (%) [1, 8]: 6.0%
remaining at 2190 h [2, 9]: 99.9%
Stability S.E. (Sensory Evaluation) ([3]; Table V, 0.05% in hair tonic): .circleincircle.

SMILES: Cn1cnc2c(ncn2[C@@H]2O[C@@H]3COP(=O)(O)O[C@H]3[C@H]2O)c1=N [1-methyl cAMP]
Rate of Grayed Hair (%) [1, 4]: 8.2%
Stability Residue(%) ([2]; Table III, 0.1% in hair tonic, 30° C., 3 months, 131400 min): 99.6%
Stability S.E. (Sensory Evaluation) ([3]; Table III, 0.1% in hair tonic): .circleincircle.

Now from value to molecule, other results behind:

stability (in words) ([2]; Example 6, hair tonic): stable
SMILES: Nc1ncnc2c1nc(SCc1ccccc1)n2[C@@H]1O[C@@H]2COP(=O)(O)O[C@H]2[C@H]1O [8-benzylthio cAMP-Na]
quality deterioration such as giving out of bad smell ([3]; Example 6, hair tonic): did not cause quality deterioration such as giving out of bad smell
effect of preventing graying of the hair and restoring grayed hair to its natural color (in words) (grayed hair; [7]): the same effect of preventing graying of the hair and restoring grayed hair to its natural color as in Example 3

stability (in words) ([2]; Example 6, hair tonic): stable
Stability Residue(%) ([2]; Table V, 0.05% in hair tonic, 30° C., 3 months, 131400 min): 99.6%
Stability S.E. (Sensory Evaluation) ([3]; Table V, 0.05% in hair tonic): .circleincircle.
SMILES: Nc1ncnc2c1nc(SCCO)n2[C@@H]1O[C@@H]2COP(=O)([O-])O[C@H]2[C@H]1O.[Na+] [8-ethylhydroxythio cAMP-Na]
Rate of Grayed Hair (%) [1, 8]: 5.5%
quality deterioration such as giving out of bad smell ([3]; Example 6, hair tonic): did not cause quality deterioration such as giving out of bad smell
effect of preventing graying of the hair and restoring grayed hair to its natural color (in words) (grayed hair; [7]): the same effect of preventing graying of the hair and restoring grayed hair to its natural color as in Example 3

remaining at 2190 h ([2]; hair tonic, Stability Residue(%)): 86.4%
deterioration in smell (in words) ([3]; Example 1): high deterioration in smell
SMILES: CCCC(=O)Nc1ncnc2c1ncn2[C@@H]1O[C@@H]2COP(=O)(O)O[C@H]2[C@H]1OC(=O)CCC [N^6,O^2' -dibutyryl cAMP, reference compound]
effect of inhibiting generation of grayed hair (in words) ([1]; Example 1, 0.1%): exhibits the grayed hair inhibitory effect
Rate of Grayed Hair (%) [1, 4]: 9.1%

stability (in words) ([2]; Example 7, hair cream): stable
remaining at 2190 h [2, 9]: 99.5%
Stability S.E. (Sensory Evaluation) ([3]; Table V, 0.05% in hair tonic): .circleincircle.
SMILES: CCCCNc1nc2c(N)ncnc2n1[C@@H]1O[C@@H]2COP(=O)(O)O[C@H]2[C@H]1O [8-butylamino cAMP-Na]
Rate of Grayed Hair (%) [1, 8]: 7.1%
quality deterioration such as giving out of bad smell ([3]; Example 7, hair cream): did not cause quality deterioration such as giving out of bad smell
effect of preventing graying of the hair and restoring grayed hair to its natural color (in words) (grayed hair; [6]): the same effect of preventing graying of the hair and restoring grayed hair to its natural color as in Example 5

Stability Residue(%) ([2]; hair tonic, 2190 h): 84.5%
deterioration in smell (in words) ([3]; Example 2): substantial deterioration in smell
SMILES: CCCC(=O)Nc1ncnc2c1ncn2[C@@H]1O[C@@H]2COP(=O)(O)O[C@H]2[C@H]1OC(=O)CCC [N^6,O^2' -dibutyryl cAMP-Na, reference compound]
effect of inhibiting generation of grayed hair (in words) ([1]; Example 2, 0.05%): exhibits the aforementioned effect
Rate of Grayed Hair (%) [1, 8]: 8.8%

stability (in words) ([2]; Example 7, hair cream): stable
SMILES: CCCCCCCCn1cnc2c(ncn2[C@@H]2O[C@@H]3COP(=O)([O-])O[C@H]3[C@H]2O)c1=N.[Na+] [1-octyl cAMP-Na]
quality deterioration such as giving out of bad smell ([3]; Example 7, hair cream): did not cause quality deterioration such as giving out of bad smell
effect of preventing graying of the hair and restoring grayed hair to its natural color (in words) (grayed hair; [6]): the same effect of preventing graying of the hair and restoring grayed hair to its natural color as in Example 5

remaining at 2190 h [2, 5]: 99.5%
Stability S.E. (Sensory Evaluation) ([3]; Table III, 0.1% in hair tonic): .circleincircle.
SMILES: Nc1ncnc2c1nc(F)n2[C@@H]1O[C@@H]2COP(=O)(O)O[C@H]2[C@H]1O [8-fluoro cAMP]
Rate of Grayed Hair (%) [1, 4]: 7.6%

remaining at 2190 h [2, 5]: 99.7%
Stability S.E. (Sensory Evaluation) ([3]; Table III, 0.1% in hair tonic): .circleincircle.
SMILES: COc1nc2c(N)ncnc2n1[C@@H]1O[C@@H]2COP(=O)(O)O[C@H]2[C@H]1O [8-methoxy cAMP]
Rate of Grayed Hair (%) [1, 4]: 7.8%

stability (in words) ([2]; Example 7, hair cream): stable
SMILES: CNc1nc2c(N)ncnc2n1[C@@H]1O[C@@H]2COP(=O)(O)O[C@H]2[C@H]1O [8-methylamino cAMP-Na]
quality deterioration such as giving out of bad smell ([3]; Example 7, hair cream): did not cause quality deterioration such as giving out of bad smell
effect of preventing graying of the hair and restoring grayed hair to its natural color (in words) (grayed hair; [6]): the same effect of preventing graying of the hair and restoring grayed hair to its natural color as in Example 5

remaining at 2190 h [2, 5]: 100%
Stability S.E. (Sensory Evaluation) ([3]; Table III, 0.1% in hair tonic): .circleincircle.
SMILES: Nc1ncnc2c1nc(SCc1ccccc1)n2[C@@H]1O[C@@H]2COP(=O)(O)O[C@H]2[C@H]1O [8-benzylthio cAMP]
Rate of Grayed Hair (%) [1, 4]: 7.2%

stability (in words) ([2]; Example 7, hair cream): stable
SMILES: CSc1nc2c(N)ncnc2n1[C@@H]1O[C@@H]2COP(=O)(O)O[C@H]2[C@H]1O [8-methylthio cAMP-Na]
quality deterioration such as giving out of bad smell ([3]; Example 7, hair cream): did not cause quality deterioration such as giving out of bad smell
effect of preventing graying of the hair and restoring grayed hair to its natural color (in words) (grayed hair; [6]): the same effect of preventing graying of the hair and restoring grayed hair to its natural color as in Example 5

remaining at 2190 h [2, 5]: 100%
Stability S.E. (Sensory Evaluation) ([3]; Table III, 0.1% in hair tonic): .circleincircle.
SMILES: Nc1ncnc2c1nc(Sc1ccccc1)n2[C@@H]1O[C@@H]2COP(=O)(O)O[C@H]2[C@H]1O [8-phenylthio cAMP]
Rate of Grayed Hair (%) [1, 4]: 7.1%

stability (in words) ([2]; Example 7, hair cream): stable
SMILES: CCCCn1cnc2c(ncn2[C@@H]2O[C@@H]3COP(=O)([O-])O[C@H]3[C@H]2O)c1=N.[Na+] [1-butyl cAMP-Na]
quality deterioration such as giving out of bad smell ([3]; Example 7, hair cream): did not cause quality deterioration such as giving out of bad smell
effect of preventing graying of the hair and restoring grayed hair to its natural color (in words) (grayed hair; [6]): the same effect of preventing graying of the hair and restoring grayed hair to its natural color as in Example 5
